Entries after “also recorded” stand apart in the source; their conditions may differ. Where two headings read alike, the source gives them in different places.
Key:
[1] = test system: CFA induced inflammatory pain model rats (mechanical pain); experiment: CFA induced inflammatory pain model, mechanical pain threshold; assay type: in vivo; settings: rat, 3 mg/kg injection, 7 days after CFA, 1 hour after administration
[2] = test system: CFA induced inflammatory pain model rats (heat pain); experiment: CFA induced inflammatory pain model, heat pain threshold; assay type: in vivo; settings: rat, 3 mg/kg injection, 3 days after CFA, 1 hour after administration
[3] = test system: SNI model rats (neuropathic pain); experiment: Spared nerve injury (SNI) model, neuropathic pain, mechanical pain threshold; assay type: in vivo; settings: rat; for Neuropathic pain (SNI model), analgesic effect: 3 mg/kg subcutaneous, 14 days after SNI, 1 hour after administration
Description: Male SD rats (200-250 g) were used, 6 per group in the cage. All the animals were placed under 12 hours light/cycle (i.e. 12 hours light and 12 hours dark in each day), free to food and water. All the experiments were conducted under the condition that the observers were blind to pharmaceutical treatment.
Spared nerve injury model (SNI): 10% chloral hydrate was injected intraperitoneally to anesthetize rats. […] The muscle was longitudinally separated to expose the core of sciatic nerve and the branching below: tibial nerve, common peroneal nerve and sural nerve. The tibial nerve and common peroneal nerve were ligatured and cut and small sural nerve was retained, meanwhile preventing any injury. The muscle and skin were sutured layer by layer, and then antibiotics were injected intraperitoneally for antibacterial purpose. For detailed methods, please refer to Decosterd I and Woolf C J. Spared nerve injury: an animal model of persistent peripheral neuropathic pain. 2000 August; Pain 87(2):149-58.
Method for detecting mechanical hyperalgesia in rats: firstly CFA solution was injected in the thenar of rats. After 24 hours, mechanical hyperalgesia quantitative detection was adopted to measure the paw withdrawal of rats to normal and harmless mechanical stimulation. Evaluation was conducted according to reference (Chaplan S R et al., Quantitative assessment of tactile allodynia in the rat paw. J Neurosci Methods. 1994 July; 53(1):55-63). In this method, the von Frey fibers with different bending force (equivalent to the range of 1-50 g force) were used to apply harmless mechanical stimulation. The rats were placed in organic glass box with metal mesh plate, and the von Frey fibers were applied on the surface of leg thenar. The von Frey fibers were applied vertically to the surface of thenar to generate the force that will trigger slight resistance to the leg. 2-3 seconds were maintained for every leg thenar. If the leg withdrew suddenly, positive records were recorded. The threshold was the mean of the weight that caused 50% paw withdrawal response (5-6 paw withdrawal/10 stimulations) in overall 10 stimulations.
Compounds MRK 016, C2, C3, C4, C5, C6, C7, C8 or α5IA (A5I) were dissolved in 70% PGE400 (PGE400:water=70:30 in volume). For injection dose, MRK016 was 2 mg/kg body weight; A5I was 3 mg/kg body weight; C2, C3, C4, C5, C6, C7 and C8 were 3 mg/kg body weight.
MRK016-M3 was dissolved in 90% PGE400 (PGE400:water=90:10 in volume). The doses were 10 mg/kg, 3 mg/kg, 1 mg/kg and 0.3 mg/kg, respectively for oral administration.
The method for behavioral data statistics was unpaired t-test. *, p<0.05, represents significant difference.

[4] = Tissue distribution, brain/plasma ratio by LC-MS; assay type: in vivo, rat; settings: for Kp at 1 h: sc, 3 mg/kg, subcutaneous injection, 1 hour after injection; for Kp at 1 h / Kp: rat
Description: The second method was to measure the tissue distribution of the substance to be measured in animal tissues. Firstly the candidate substance was administrated to animals by injection (or oral administration). The brain tissue and plasma tissue were extracted 0.25-2.0 hours after injection. liquid Chromatograph Mass SpectrometerL-MS was used to measure the concentration of the drug. If the brain/plasma ratio of the compound is less than 0.5, then the candidate substance is a potential drug for treating pain with fewer side effects.
Meanwhile, the inventors detected the distribution of these compounds in the tissue of rats. Firstly the substances to be measured were subcutaneously injected into the body of animals. Then brain tissue and plasma tissue were extracted 1 hour after injection. Ls-MS was used to measure the concentration of drugs. If the brain/plasma ratio of the compound is less than 0.1, then the candidate substance is a potential drug for treating pain with fewer side effects.

[5] = brain and plasma extracted 0.25-2.0 hours after injection, LC-MS

| SMILES | CFA induced inflammatory pain model (mechanical pan), analgesic effect [1] | CFA induced inflammatory pain model (heat pain), analgesic effect [2] | Neuropathic pain (SNI model), analgesic effect [3] | Kp at 1 h ([4]; brain and plasma, LC-MS) | other results |
| --- | --- | --- | --- | --- | --- |
| Cc1ncn2c1Cn1ncnc1-c1cc(Br)ccc1-2 | Significant analgesic effect | Significant analgesic effect | Significant analgesic effect | < 0.2 | – |
| FC(F)c1ncn2c1Cn1ncnc1-c1cc(I)ccc1-2 | Significant analgesic effect | Significant analgesic effect | Significant analgesic effect | – | – |
| Cc1ncn2c1Cn1ncnc1-c1cc(I)ccc1-2 | Significant analgesic effect | Significant analgesic effect | Significant analgesic effect | < 0.1 | – |
| Clc1ncn2c1Cn1ncnc1-c1cc(I)ccc1-2 | Significant analgesic effect | Significant analgesic effect | Significant analgesic effect | < 0.1 | – |
| Clc1ccc2c(c1)-c1ncnn1Cc1c(Cl)ncn1-2 | Significant analgesic effect | Significant analgesic effect | Significant analgesic effect | – | Kp at 1 h ([4]; in vivo, LC-MS): > 0.2 |
| FC(F)c1ccc2c(c1)-c1ncnn1Cc1c(Cl)ncn1-2 | Significant analgesic effect | Significant analgesic effect | Significant analgesic effect | – | – |
| Cc1ncn2c1Cn1ncnc1-c1cc(C(F)F)ccc1-2 | Significant analgesic effect | Significant analgesic effect | Significant analgesic effect | – | – |
| Cc1ncn2c1Cn1ncnc1-c1cc(Cl)ccc1-2 | Significant analgesic effect | Significant analgesic effect | Significant analgesic effect | 0.2 | – |
| CC(C)(C)C1C(OCc2ccccn2)=NN2C(c3cc(CO)on3)=NN=CC12 (stereo not drawn) [Compound C2, (3-(3-tert-butyl-2-(2-pyridylmethoxyl)-3,3a-2H-pyrazolo[1,5-d][1,2,4]triazin-7-yl)isoxazole-5-yl)methanol] | – | – | – | – | CFA induced inflammatory pain model (mechanical pan), analgesic effect ([1]; 3 mg/kg): efficiently treat pain; also recorded: efficiently suppressed heat pain or mechanical pain response; CFA induced inflammatory pain model (heat pain), analgesic effect ([2]; 3 mg/kg): efficiently treat chronic pain; also recorded: efficiently suppressed heat pain or mechanical pain response; Neuropathic pain (SNI model), analgesic effect ([3]; 3 mg/kg): efficiently treat pain; also recorded: efficiently suppressed neuropathic pain |
| CC(C)(C)C1C(OCc2cccnc2)=NN2C(c3cc(CO)on3)=NN=CC12 (stereo not drawn) [Compound C3, (3-(3-tert-butyl-2-(3-pyridylmethoxyl)-3,3a-2H-pyrazolo[1,5-d][1,2,4]triazin-7-yl)isoxazole-5-yl)methanol] | – | – | – | – | CFA induced inflammatory pain model (mechanical pan), analgesic effect ([1]; 3 mg/kg): efficiently treat pain; also recorded: efficiently suppressed heat pain or mechanical pain response; CFA induced inflammatory pain model (heat pain), analgesic effect ([2]; 3 mg/kg): efficiently treat chronic pain; also recorded: efficiently suppressed heat pain or mechanical pain response; Neuropathic pain (SNI model), analgesic effect ([3]; 3 mg/kg): efficiently treat pain; also recorded: efficiently suppressed neuropathic pain |
| OCc1cc(-c2nnc3c4ccccc4c(OCc4cccnc4)nn23)no1 [Compound C6, {3-[6-(Pyridin-3-ylmethoxy)-[1,2,4]triazolo[3,4-a]phthalazin-3-yl]-isoxazol-5-yl}-methanol] | – | – | – | – | CFA induced inflammatory pain model (mechanical pan), analgesic effect ([1]; 3 mg/kg): efficiently inhibit nociceptive response; also recorded: efficiently suppressed heat pain or mechanical pain response; CFA induced inflammatory pain model (heat pain), analgesic effect ([2]; 3 mg/kg): efficiently inhibit nociceptive response; also recorded: efficiently suppressed heat pain or mechanical pain response; Neuropathic pain (SNI model), analgesic effect ([3]; 3 mg/kg): efficiently inhibit nociceptive response; also recorded: efficiently suppressed neuropathic pain |
| OCc1cc(-c2nnc3c4ccccc4c(OCc4ccncc4)nn23)no1 [Compound C7, {3-[6-(Pyridin-4-ylmethoxy)-[1,2,4]triazolo[3,4-a]phthalazin-3-yl]isoxazol-5-yl}-methanol] | – | – | – | – | CFA induced inflammatory pain model (mechanical pan), analgesic effect ([1]; 3 mg/kg): efficiently inhibit nociceptive response; also recorded: efficiently suppressed heat pain or mechanical pain response; CFA induced inflammatory pain model (heat pain), analgesic effect ([2]; 3 mg/kg): efficiently inhibit nociceptive response; also recorded: efficiently suppressed heat pain or mechanical pain response; Neuropathic pain (SNI model), analgesic effect ([3]; 3 mg/kg): efficiently inhibit nociceptive response; also recorded: efficiently suppressed neuropathic pain |
| FC(F)c1ncn2c1Cn1ncnc1-c1cc(Br)ccc1-2 [drawing 27] | – | – | – | – | Passing blood brain barrier [4, 5]: slightly passing blood brain barrier; Kp ([4]; other: injection (or oral administration), brain and plasma extracted 0.25-2.0 hours after injection, LC-MS, read-out: brain/plasma ratio): < 0.5 |
| Clc1ncn2c1Cn1ncnc1-c1cc(Br)ccc1-2 [drawing 28] | – | – | – | – | Passing blood brain barrier [4, 5]: more slightly passing blood brain barrier; Kp ([4]; in vivo): < 0.5 |
| Clc1ncn2c1Cn1ncnc1-c1cc(Br)ccc1-2 [drawing 57] | Significant analgesic effect | Significant analgesic effect | Significant analgesic effect | < 0.1 | – |
| FC(F)c1ncn2c1Cn1ncnc1-c1cc(Br)ccc1-2 [drawing 58] | Significant analgesic effect | Significant analgesic effect | Significant analgesic effect | > 0.2 | – |
| NCC1(CC(=O)O)CCCCC1 [gabapentin] | – | – | – | – | Suppression of neuropathic pain ([3]; 11 days after SNI model): efficiently suppressed neuropathic pain |

Source: patent US20150374705A1, “Substances for treatment or relief of pain” (Shanghai Institues for Biological Sciences, priority 2012, published 2015)
